Experiments:
Experiment in all cases: relative viability (nuclei count vs DMSO), 5 days (fraction); higher = more cells survive
Crizotinib + Pemetrexed = compound: C[C@@H](Oc1cc(-c2cnn(C3CCNCC3)c2)cnc1N)c1c(Cl)ccc(F)c1Cl [Crizotinib] + Nc1nc2[nH]cc(CCc3ccc(C(=O)N[C@@H](CCC(=O)O)C(=O)O)cc3)c2c(=O)[nH]1 [Pemetrexed] (partner 0.2 µM)
How it was run: (§1)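 The day after seeding in 1536-well plates, lung cancer cell lines were treated by pin tool with a single drug, or with a fixed anchor-drug dose together with five library-drug doses (not always all listed) in √10 steps. After 5 days, a combined fix-and-stain solution (final 0.05% Triton X-100, 1% formaldehyde, 1 ug/ml Hoechst) was added. Nuclei counted on 4× images gave relative viability as treated counts over vehicle counts, reported as the median of duplicate plates.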

Olaparib + Pemetrexed = compound: O=C(c1cc(Cc2n[nH]c(=O)c3ccccc23)ccc1F)N1CCN(C(=O)C2CC2)CC1 [Olaparib] + Nc1nc2[nH]cc(CCc3ccc(C(=O)N[C@@H](CCC(=O)O)C(=O)O)cc3)c2c(=O)[nH]1 [Pemetrexed] (partner 0.2 µM)
How it was run: as §1

Carfilzomib + Alpelisib = compound: CC(C)C[C@H](NC(=O)[C@H](CCc1ccccc1)NC(=O)CN1CCOCC1)C(=O)N[C@@H](Cc1ccccc1)C(=O)N[C@@H](CC(C)C)C(=O)[C@@]1(C)CO1 [Carfilzomib] + Cc1nc(NC(=O)N2CCC[C@H]2C(N)=O)sc1-c1ccnc(C(C)(C)C(F)(F)F)c1 [Alpelisib] (partner 2 µM)
How it was run: as §1

Crizotinib + Palbociclib = compound: C[C@@H](Oc1cc(-c2cnn(C3CCNCC3)c2)cnc1N)c1c(Cl)ccc(F)c1Cl [Crizotinib] + CC(=O)c1c(C)c2cnc(Nc3ccc(N4CCNCC4)cn3)nc2n(C2CCCC2)c1=O [Palbociclib] (partner 0.5 µM)
How it was run: as §1

| Cell Line | relative viability (Crizotinib + Pemetrexed; first compound 0.01 µM) | relative viability (Crizotinib + Pemetrexed; first compound 0.03162 µM) | relative viability (Crizotinib + Pemetrexed; first compound 0.1 µM) | relative viability (Crizotinib + Pemetrexed; first compound 0.3162 µM) | relative viability (Crizotinib + Pemetrexed; first compound 1 µM) | relative viability (Olaparib + Pemetrexed; first compound 0.08 µM) | relative viability (Olaparib + Pemetrexed; first compound 0.253 µM) | relative viability (Olaparib + Pemetrexed; first compound 2.53 µM) | relative viability (Olaparib + Pemetrexed; first compound 8 µM) | relative viability (Carfilzomib + Alpelisib; first compound 0.001 µM) | relative viability (Carfilzomib + Alpelisib; first compound 0.003162 µM) | relative viability (Carfilzomib + Alpelisib; first compound 0.01 µM) | relative viability (Carfilzomib + Alpelisib; first compound 0.03162 µM) | relative viability (Carfilzomib + Alpelisib; first compound 0.1 µM) | relative viability (Crizotinib + Palbociclib; first compound 0.01 µM) | relative viability (Crizotinib + Palbociclib; first compound 0.03162 µM) | relative viability (Crizotinib + Palbociclib; first compound 0.1 µM) | relative viability (Crizotinib + Palbociclib; first compound 0.3162 µM) | relative viability (Crizotinib + Palbociclib; first compound 1 µM) |
| --- | --- | --- | --- | --- | --- | --- | --- | --- | --- | --- | --- | --- | --- | --- | --- | --- | --- | --- | --- |
| NCI-H1651 | 0.545 | 0.369 | 0.65 | 0.378 | 0.535 | 0.624 | 0.586 | 0.553 | 0.334 | 0.927 | 0.881 | 0.725 | 0.0951 | 0.0668 | 0.507 | 0.544 | 0.505 | 0.534 | 0.529 |
| NCI-H1666 | 0.826 | 0.814 | 0.87 | 0.808 | 0.82 | 0.945 | 0.772 | 0.856 | 0.822 | 1.06 | 1.05 | 1.03 | 0.3 | 0.231 | 0.678 | 0.685 | 0.712 | 0.625 | 0.623 |
| NCI-H1734 | 0.411 | 0.442 | 0.403 | – | 0.395 | 0.417 | 0.398 | 0.387 | 0.362 | 0.695 | 0.832 | 0.69 | 0.367 | 0.165 | 0.346 | 0.327 | 0.327 | – | 0.341 |
| NCI-H1755 | 0.373 | 0.44 | 0.382 | 0.445 | 0.408 | 0.447 | 0.68 | 0.419 | 0.396 | 0.917 | 0.948 | 0.925 | 0.601 | 0.202 | 0.465 | 0.445 | 0.445 | 0.457 | 0.451 |
| NCI-H1792 | 0.829 | 1.06 | 0.847 | – | 0.871 | 0.86 | 0.547 | 0.605 | 0.398 | 0.648 | 0.742 | 0.674 | 0.756 | 0.386 | 0.588 | 0.692 | 0.639 | – | 0.68 |
| NCI-H1915 | 0.455 | 0.431 | 0.506 | 0.455 | 0.482 | 0.553 | 0.493 | 0.511 | 0.419 | 1.05 | 1.1 | 1.04 | 0.689 | 0.0648 | 0.517 | 0.525 | 0.488 | 0.51 | 0.476 |
| NCI-H1944 | 0.499 | 0.614 | 0.621 | 0.605 | 0.652 | 0.639 | 0.529 | 0.496 | 0.561 | 0.776 | 0.877 | 0.776 | 0.938 | 0.304 | 0.284 | 0.315 | 0.307 | 0.345 | 0.344 |
| NCI-H1975 | 0.296 | 0.3 | 0.287 | 0.301 | 0.291 | 0.304 | 0.265 | 0.303 | 0.275 | 0.584 | 0.646 | 0.281 | 0.117 | 0.126 | 0.594 | 0.792 | 0.554 | 0.475 | 0.493 |

Source: the supplement of paper PMC10307832
